Results as given in article PMC9646675 (Nature, 2022).

Legend:
[1] = target: T1, uncoupling protein 1 (UCP1) (Mus musculus, UniProt P12242); assay: whole-IMM patch clamp, dose-dependent inhibition of IH induced by […] DNP; assay type: biochemical
T1 sequence (P12242 1-307): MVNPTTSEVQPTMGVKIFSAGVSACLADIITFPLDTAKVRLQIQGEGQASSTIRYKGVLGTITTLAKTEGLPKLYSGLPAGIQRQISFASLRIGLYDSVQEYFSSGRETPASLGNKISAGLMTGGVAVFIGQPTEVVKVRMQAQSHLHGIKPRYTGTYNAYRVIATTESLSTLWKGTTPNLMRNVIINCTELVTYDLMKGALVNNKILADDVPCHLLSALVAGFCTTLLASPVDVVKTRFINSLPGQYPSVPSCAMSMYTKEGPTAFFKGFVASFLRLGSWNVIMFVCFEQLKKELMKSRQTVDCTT

[2] = target: T1, uncoupling protein 1 (UCP1); assay: whole-IMM patch clamp, WT vs UCP1-/-; assay type: cell-based
ADP/ATP carrier AAC1 = target: T2, ADP/ATP carrier AAC1 (Mus musculus, UniProt P48962); assay: whole-IMM patch clamp; assay type: cell-based
T2 sequence (P48962 2-298): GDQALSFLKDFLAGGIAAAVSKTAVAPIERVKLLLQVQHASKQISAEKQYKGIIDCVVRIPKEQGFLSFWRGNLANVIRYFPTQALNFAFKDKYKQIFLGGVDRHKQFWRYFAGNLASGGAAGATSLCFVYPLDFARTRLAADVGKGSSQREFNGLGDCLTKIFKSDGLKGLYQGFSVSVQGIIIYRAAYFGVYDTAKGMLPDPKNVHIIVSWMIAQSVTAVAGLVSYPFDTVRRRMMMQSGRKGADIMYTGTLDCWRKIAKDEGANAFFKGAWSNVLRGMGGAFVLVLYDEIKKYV

## Nc1ncnc2c1ncn2[C@@H]1O[C@H](COP(=O)(O)OP(=O)(O)OP(=O)(O)O)[C@@H](O)[C@H]1O [ATP]
[1]
  IC50: ~14 µM

## O=[N+]([O-])c1ccc(O)c([N+](=O)[O-])c1 [DNP, 2,4-dinitrophenol]
[2]
  whole-IMM patch clamp, WT vs UCP1-/-; GDP block; competition with ATP: Thus, UCP1 is crucial for DNP-induced IH in brown fat mitochondria.

## N#CC(C#N)=NNc1ccc(OC(F)(F)F)cc1 [FCCP]
ADP/ATP carrier AAC1
  whole-IMM patch clamp (25-250 nM), WT vs AAC1-/-; CATR block: DNP and FCCP activate IH through AAC.
